Assays:
[1] = Inhibition of Bcl2 in human DMS53 cells assessed as growth inhibition
[2] = Inhibition of MDM2 in human HCT116 p53+/+ cells assessed as growth inhibition

IC50 [1]: 5 µM
IC50 [2]: 5 µM
Structure (SMILES): CC(C)Oc1ccc(C(=O)Nc2c(C(=O)O)nn(-c3ccc(Oc4ccccc4)cc3)c2-c2ccc(OC(C)C)cc2)cc1

Reference: BindingDB's records for doi:10.1021/acs.jmedchem.5b01913 (Dalian University of Technology, 2016)
